According to patent publication US20040171594A1, “Use of bis-acid(5-androsten-17-one-3beta-hydroxyl)diester for manufacture pharmaceuticals” (priority 2001, published 2004):
Marks after values point to notes of the source that are not given here.

Assays:
[1] = tested on: arrhythmia of rats induced by Aconitine; assay: Arrhythmia of rats induced by Aconitine; format: in vivo, SD rats
Description: Male SD rats, weighing (218.3±20.0) g, were anaesthetized with urethane 1.2 g/kg body weight by abdominal injection, continuously monitored by II lead electrocardiogram (ECG) by MS302 Biological Signal Record and Analysis System. After ten minutes of being administered drug or 0.5% CMC-Na through sublingual vein, rats were injected with Aconitine in external jugular vein at 2.5 μg/min speed, recorded the dose at appearance time of ventricular premature beat (VP), ventricular tachycardia (VT), ventricular fibrillation (VF) and cardiac arrest (CA), respectively. And t test was performed. […] The effect of compounds Ca Do E at 0.5 mg/kg dose were remarkably better than that of Prasterone and Arniodarone.

[2] = tested on: arrhythmia of guinea pigs induced by Ouabain; assay: Arrhythmia of guinea pigs induced by Ouabain; format: in vivo; conditions: n=8
Description: Chose 40 male guinea pigs, weighing (288.8±38.3) g, randomly divided into six groups, anaesthetized with urethane 1.2 g/kg by abdominal injection. Ten minutes after administered drug or 0.5% CMC-Na, the guinea pigs were injected Ouabain into external jugular vein at 3 μg/min speed, recorded ECG respectively, measured the dose at appearance time of VP, VT, VF and CA, and performed t test.

[3] = tested on: arrhythmia of rats induced by BaCl2; assay: Arrhythmia of rats induced by BaCl2; format: in vivo, SD rats; conditions: BaCl2 4 mg/kg, drug 3 mg/kg into vein, within 60 min, n=10
Description: 50 male SD rats, weighing (236.7±13.7)g, were anaesthetized with 10% chloral hadrate 0.3 g/kg intraperitoneally, recorded ECG with intubating of external jugular vein administering drug. As soon as injected with BaCl2 4 mg/kg, rats usually emerged VP and VT quickly and developed to be the steady and typical double-aspect arrhythmia. After immediately injected with drug or 0.5% CMC-Na into vein, recorded the time of recovering and maintaining sinus rhythm within 60 min as standard, and compared the function between five groups. […] Time of maintaining sinus rhythm was longer and acted more quickly than that of Amiodarone group.

[4] = tested on: myocardium injury model of rats induced by ISO; assay: Myocardium injury (myocardial ischemia) model of rats induced by ISO; format: in vivo, SD rats; conditions: drug 0.76 mg/kg, n=8; for Σ ST: rats, ISO s.c.
Description: SD rats were measured ECG by chest leads before experiment, abandoned those of abnormal or arrhythmia at T wave, ST sect. […] They were divided into four groups according to Table 4, eight rats in each group. As dose of Table 4, tested compounds or 0.5% CMC-Na solution with same volume were administered through duodenum for 30 minutes, rats were anaesthetized with aether. After ECG was recorded, Isoproterenol (ISO) was administered by subcutaneous injection from the back, recorded ECG again after 30 minutes. After specimen was intragastricly granted for 24 hours and 48 hours, every group was administered simples again and recorded ECG again in terms of the methods stated above. After 72 hours, bleeding from the ophthalmic venous plexus and separated blood serum through centrifugation. Killed the rats, scissor the tip of the heart to prepare 10% myocardial tissue homogenate with 4° C. physiological saline as standby.
Measured each rat's value of ST before first administering ISO. And after first, second and third subcutaneous injection for 30 minutes, calculated mv mean value of ΣST as guide line of myocardium injury and performed t test.
The changes of MDA LDH and CK in serum were measured with agent kits.
The changes of MDA, LDH and CK in serum and myocardial tissue homogenate were measured with agent kits.

[5] = tested on: cerebral ischemia-reperfusion injury of mice; assay: Memory step-through test after cerebral ischemia-reperfusion injury; format: in vivo, NIH mice; conditions: 4.5 mg/kg intragastric once a day for 10 days, n=10
Description: After weighed, NIH mice were anaesthetized with Penbotarbital 60 mg/kg, then performed operation. Fixed at supine position, the skin in the middle of the deck was dissected about 7 mm. Separated common carotid artery of two sides of neck, surrounded with the thread of No “0”. Common carotid artery of two sides was chipped with artery clip for 2 minutes to induce cerebral ischemia. In the end of ischemia treatment, artery clip was loosed and blood perfusion was restored, rest for five minutes, repeated twice as that. After blocking blood flow of carotid, sutured incision. Recorded trail bloodletting, bloodletting quantity was no more than 10% of total blood quantity. After operation, […] were administered with proper physiological saline through intraperitoneal injection in order to supple capacity of blood. After pseudo operation group was anaesthetized, carotid of two sides was separated but blood flow was not blocked, without being bloodletting too.
In experiment appearance of body temperature lowering and righting reflex disappearing was as positive guide-line of ischemia, discarding those without typical guide line of ischemia. In the procedure of ischemia or after operation, some of animals would be dead. […] According to the dose of Table 7, animals were administered with medicine by intragastric intubation once a day, and continue administered drug for 10 days. After 10 days, memory test was performed.

[6] = tested on: thymus and spleen of mice; assay: Indexes of thymus and spleen of mice injected with cyclophosphamide; format: in vivo, NIH mice; conditions: cyclophosphamide 60 mg/kg i.p., drug 10 mg/kg intragastric for 30 days, n=10
Description: Chose 90 healthy NIH mice, weighing (18˜22)g, equal amount of male and female. Every mouse was injected with cyclophos phamide (60 mg/kg, intraperitoneally). […] Administered specimen through intragastric intubation in terms of the dose in Table 8. Continuously administered orally specimen for 30 days, all mice fasted on the 30th day, but were supplied with water. On the 31th day, mice of every group were killed. Weighed their body, thymus and spleen, calculated index of thymus and spleen, compared the difference among each group.

[7] = tested on: osteoporosis model of rats induced by Retinoic acid; assay: Osteoporosis model of rats induced by Retinoic acid; format: in vivo, SD rats; conditions: Retinoic acid 70 mg/kg, specimen orally 30 days (dose not given), right thighbone, n=8
Source text: After continuously administering specimen for 30 days, killed rats and took right thighbone of rat.
Took same part tissue of right thighbone, routinely decalcified, enveloped with olefin, and dyed with HE. Observed with ordinary optics microscope, import all imagines into computer with A/D conversion of pickup camera, via dealing with image analysis software obtained index of guide line as follows: relative bone volume, indicating percentage that bone trabecula accounted for medullary cavity, 1.25×10×4 times; average width of bone trabecula, 1.25×10×10 times; amount of cell per area in bone trabecula, gathering same area image (640×480) of bone trabecula with image analysis software, calculating amount of bone cell in corresponding area, 1.25×10×40 times; Average length of bone cell lacuna, 1.25×10×40; Average width of bone cell lacuna, 1.25×10×40. The above five indexes of static state guide-line were all observed for ten eyeshots, calculating their average value.

[8] = tested on: acute renal failure of mice induced by endotoxin; assay: Acute renal failure model induced by endotoxin; format: in vivo, NIH mice; conditions: drug 10 mg/kg i.p., endotoxin 0.06 g/kg, after five hours, n=10; for GSH-Px: mice kidney homogenate; for BUN / Cr: mice serum
Description: After five hours, blood of the mice was collected by removing eyes, assayed Blood Urea Nitrogen (BUN) and Creatinine (Cr) concentration of serum. One kidney of each […] was taken out and made 100 mL/L homogenate, assayed activity of Glutathione Peroxidase (GSH-Px) enzyme.

[9] = drug 3 mg/kg 10 min before Ouabain 3 μg/min
[10] = drug 1.5 mg/kg 10 min before Ouabain 3 μg/min
[11] = myocardial tissue homogenate of rats with ISO myocardium injury
[12] = serum of rats with ISO myocardium injury, after 72 hours
[13] = rats, drug 0.5 mg/kg sublingual vein 10 min before Aconitine 2.5 μg/min, n=10

| Molecule | Activity of CK [4, 11] [U/L] | Activity of LDH [4, 11] [U/L] | MDA [4, 11] [nmol/g] | Σ ST ([4]; 30 min) [mv] | Σ ST ([4]; 24 h) [mv] | Σ ST ([4]; 48 h) [mv] | Σ ST ([4]; 72 h) [mv] | Activity of CK [4, 12] [U/L] | Activity of LDH [4, 12] [U/L] | MDA [4, 12] [nmol/mL] | Latency of dark cabin, Memory [5] [s] | Latency of dark cabin, Study [5] [s] | Number of error [5] [n] | Index of spleen [6] [mg/10 g body weight] | Index of thymus [6] [mg/10 g body weight] | Amount of cell per area in bone trabecula [7] | Average width of bone trabecula [7] [μm] | Relative bone volume [7] [%] | GSH-Px [8] [nU · L^−1] | BUN [8] | other results |
| --- | --- | --- | --- | --- | --- | --- | --- | --- | --- | --- | --- | --- | --- | --- | --- | --- | --- | --- | --- | --- | --- |
| CCCCc1oc2ccccc2c1C(=O)c1cc(I)c(OCCN(CC)CC)c(I)c1 [Amiodarone, reference compound] |  |  |  |  |  |  |  |  |  |  |  |  |  |  |  |  |  |  |  |  | Dose of Aconitine required to induce CA ([1]; {}): 0.176 ± 0.038 mg/kg; Dose of Aconitine required to induce VF ([1]; {}): 0.1412 ± 0.0282 mg/kg; Dose of Aconitine required to induce VP ([1]; {}): 0.09 ± 0.0257 mg/kg; Dose of Aconitine required to induce VT ([1]; {}): 0.1088 ± 0.0254 mg/kg; Dose of Oua at appearance of CA [2, 9]: 0.2836 ± 0.0439 mg/kg; Dose of Oua at appearance of VF [2, 9]: 0.2476 ± 0.0461 mg/kg; Dose of Oua at appearance of VP [2, 9]: 0.1184 ± 0.0335 mg/kg; Dose of Oua at appearance of VT [2, 9]: 0.175 ± 0.0411 mg/kg; time of maintaining sinus rhythm [3]: 40.156 ± 5.124 min; time of storing sinus rhythm [3]: 15.859 ± 5.126 min |
| C[C@]12CC[C@H](OC(=O)CCCCC(=O)O[C@H]3CC[C@@]4(C)C(=CC[C@@H]5[C@@H]4CC[C@]4(C)C(=O)CC[C@@H]54)C3)CC1=CC[C@@H]1[C@@H]2CC[C@]2(C)C(=O)CC[C@@H]12 [Compound F, adipic acid-(5-androsten-17-one-3β-ol)-diester] | 221.58 ± 45.58 | 157.39 ± 20.69 | 105.02 ± 10.84 | 0.47 ± 0.10 | 0.57 ± 0.15 | 0.61 ± 0.05 | 0.53 ± 0.08 | 252.17 ± 18.41 | 250.40 ± 31.30 | 24.16 ± 4.18 | 46.5 ± 13.8 | 28.7 ± 11.8 | 2.9 ± 1.1 | 75.24 ± 15.48 | 16.24 ± 3.31 | 26.31 ± 3.16 | 74.67 ± 3.56 | 37.14 ± 3.46 | 35.2 ± 12.8 | 377.1 ± 38.1*** 10 mg · L^−1 | Dose of Oua at appearance of CA [2, 10]: 0.212 ± 0.0406 mg/kg; Dose of Oua at appearance of VF [2, 10]: 0.1762 ± 0.0481 mg/kg; Dose of Oua at appearance of VP [2, 10]: 0.0874 ± 0.0213 mg/kg; Dose of Oua at appearance of VT [2, 10]: 0.1394 ± 0.0354 mg/kg; Cr [8]: 38.31 ± 9.69*** 10 mg · L^−1 |
| C[C@]12CC[C@H](OC(=O)CCCC(=O)O[C@H]3CC[C@@]4(C)C(=CC[C@@H]5[C@@H]4CC[C@]4(C)C(=O)CC[C@@H]54)C3)CC1=CC[C@@H]1[C@@H]2CC[C@]2(C)C(=O)CC[C@@H]12 [Compound E, glutaric acid-(5-androsten-17-one-3β-ol)-diester] | 206.18 ± 43.80 | 160.27 ± 20.36 | 89.62 ± 12.37 | 0.53 ± 0.11 | 0.50 ± 0.10 | 0.57 ± 0.04 | 0.51 ± 0.07 | 275.44 ± 21.81 | 267.35 ± 38.42 | 25.54 ± 3.80 | 45.8 ± 12.9 | 24.1 ± 16.0 | 3.1 ± 2.7 | 68.20 ± 9.82 | 20.22 ± 2.75 | 19.35 ± 3.13 | 68.66 ± 9.80 | 35.87 ± 3.12 | 32.0 ± 14.4 | 315.9 ± 40.8*** 10 mg · L^−1 | Dose of Aconitine required to induce CA [1, 13]: 0.1845 ± 0.0271 mg/kg; Dose of Aconitine required to induce VF [1, 13]: 0.1634 ± 0.0305 mg/kg; Dose of Aconitine required to induce VP [1, 13]: 0.1082 ± 0.0374 mg/kg; Dose of Aconitine required to induce VT [1, 13]: 0.1224 ± 0.0378 mg/kg; Cr [8]: 32.86 ± 8.07*** 10 mg · L^−1 |
| glycol-disulphonic acid-(5-androsten-17-one-3β-ol)-diester [Compound G] | 225.60 ± 31.81 | 152.22 ± 25.42 | 99.52 ± 13.15 | 0.51 ± 0.13 | 0.50 ± 0.14 | 0.67 ± 0.19 | 0.42 ± 0.07 | 248.20 ± 20.50 | 254.75 ± 30.81 | 20.54 ± 2.11 | 47.5 ± 15.7 | 29.5 ± 17.5 | 3.4 ± 1.6 | 80.22 ± 17.33 | 18.39 ± 3.24 | 25.84 ± 3.31 | 69.67 ± 3.15 | 34.37 ± 3.27 | 31.8 ± 12.3 | 412.2 ± 40.5*** 10 mg · L^−1 | Dose of Oua at appearance of CA [2, 10]: 0.228 ± 0.0398 mg/kg; Dose of Oua at appearance of VF [2, 10]: 0.1887 ± 0.0378 mg/kg; Dose of Oua at appearance of VP [2, 10]: 0.1109 ± 0.0203 mg/kg; Dose of Oua at appearance of VT [2, 10]: 0.1443 ± 0.0338 mg/kg; Cr [8]: 40.42 ± 10.94*** 10 mg · L^−1 |
